Results from PubChem BioAssay (NCI).
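Five concentrations, 48 hours, 96-well plates. TGI is the concentration that stops growth completely.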

What was measured:
Assay in all cases: growth of human tumour cells (NCI), 48 h
NCI-H226 lung = system: NCI-H226 lung
RXF 393 renal = system: RXF 393 renal
DMS 114 small cell lung = system: DMS 114 small cell lung
SK-MEL-28 melanoma = system: SK-MEL-28 melanoma
A549 NSCLC = system: A549 NSCLC
HT29 colon = system: HT29 colon
U251 CNS = system: U251 CNS
RXF-631 renal = system: RXF-631 renal
NCI-H460 lung = system: NCI-H460 lung
SN12C renal = system: SN12C renal
CAKI-1 renal = system: CAKI-1 renal
LOX IMVI melanoma = system: LOX IMVI melanoma
RPMI-8226 leukemia = system: RPMI-8226 leukemia
HOP-18 NSCLC = system: HOP-18 NSCLC
OVCAR-4 ovarian = system: OVCAR-4 ovarian
M14 melanoma = system: M14 melanoma
SF-539 CNS = system: SF-539 CNS
UACC-62 melanoma = system: UACC-62 melanoma
IGROV1 ovarian = system: IGROV1 ovarian
EKVX NSCLC = system: EKVX NSCLC
UO-31 renal = system: UO-31 renal
KM12 colon = system: KM12 colon
CCRF-CEM leukemia = system: CCRF-CEM leukemia
KM20L2 colon = system: KM20L2 colon
HOP-92 NSCLC = system: HOP-92 NSCLC
SW-620 colon = system: SW-620 colon
LXFL 529 NSCLC = system: LXFL 529 NSCLC
HCT-15 colon = system: HCT-15 colon
K-562 leukemia = system: K-562 leukemia
M19-MEL melanoma = system: M19-MEL melanoma
SNB-19 CNS = system: SNB-19 CNS
OVCAR-8 ovarian = system: OVCAR-8 ovarian
ACHN renal = system: ACHN renal
UACC-257 melanoma = system: UACC-257 melanoma
SNB-78 CNS = system: SNB-78 CNS
786-0 renal = system: 786-0 renal
XF 498 CNS = system: XF 498 CNS
SK-MEL-5 melanoma = system: SK-MEL-5 melanoma
DMS 273 small cell lung = system: DMS 273 small cell lung
COLO 205 colon = system: COLO 205 colon
HCT-116 colon = system: HCT-116 colon
SF-268 CNS = system: SF-268 CNS
OVCAR-3 ovarian = system: OVCAR-3 ovarian
DLD-1 colon = system: DLD-1 colon
SK-OV-3 ovarian = system: SK-OV-3 ovarian
TK-10 renal = system: TK-10 renal
SK-MEL-2 melanoma = system: SK-MEL-2 melanoma
MALME-3M melanoma = system: MALME-3M melanoma
MOLT-4 leukemia = system: MOLT-4 leukemia
NCI-H23 lung = system: NCI-H23 lung
NCI-H522 lung = system: NCI-H522 lung
SNB-75 CNS = system: SNB-75 CNS
A498 renal = system: A498 renal
OVCAR-5 ovarian = system: OVCAR-5 ovarian
HCC-2998 colon = system: HCC-2998 colon
HOP-62 NSCLC = system: HOP-62 NSCLC
SF-295 CNS = system: SF-295 CNS
HL-60(TB) leukemia = system: HL-60(TB) leukemia
SR leukemia = system: SR leukemia

O=C(N/C(=C\c1ccc(Br)cc1)c1nc2ccccc2s1)c1ccccc1 was tested, and the TGI (NCI-H226 lung) was over 100 µM, the TGI (RXF 393 renal) was over 100 µM and the TGI (DMS 114 small cell lung) was over 100 µM. The TGI (SK-MEL-28 melanoma) was over 100 µM, the TGI (A549 NSCLC) was over 100 µM and the TGI (HT29 colon) was over 100 µM. The TGI (U251 CNS) was over 100 µM, the TGI (RXF-631 renal) was over 100 µM and the TGI (NCI-H460 lung) was over 100 µM. It also gave a TGI (SN12C renal) of over 100 µM, a TGI (CAKI-1 renal) of over 100 µM and a TGI (LOX IMVI melanoma) of over 100 µM. For the same compound, the TGI (RPMI-8226 leukemia) was over 100 µM, the TGI (HOP-18 NSCLC) was over 100 µM and the TGI (OVCAR-4 ovarian) was over 100 µM. The TGI (M14 melanoma) was over 100 µM, the TGI (SF-539 CNS) was over 100 µM and the TGI (UACC-62 melanoma) was over 100 µM. For the same compound, the TGI (IGROV1 ovarian) was over 100 µM, the TGI (EKVX NSCLC) was over 100 µM and the TGI (UO-31 renal) was over 100 µM. The TGI (KM12 colon) was over 100 µM, the TGI (CCRF-CEM leukemia) was over 100 µM and the TGI (KM20L2 colon) was over 100 µM. For the same compound, the TGI (HOP-92 NSCLC) was over 100 µM, the TGI (SW-620 colon) was over 100 µM and the TGI (LXFL 529 NSCLC) was over 100 µM. For the same compound, the TGI (HCT-15 colon) was over 100 µM, the TGI (K-562 leukemia) was over 100 µM and the TGI (M19-MEL melanoma) was over 100 µM. For the same compound, the TGI (SNB-19 CNS) was over 100 µM, the TGI (OVCAR-8 ovarian) was over 100 µM and the TGI (ACHN renal) was over 100 µM. The TGI (UACC-257 melanoma) was over 100 µM, the TGI (SNB-78 CNS) was over 100 µM and the TGI (786-0 renal) was over 100 µM. For the same compound, the TGI (XF 498 CNS) was over 100 µM, the TGI (SK-MEL-5 melanoma) was over 100 µM and the TGI (DMS 273 small cell lung) was over 100 µM. It also gave a TGI (COLO 205 colon) of over 100 µM, a TGI (HCT-116 colon) of over 100 µM and a TGI (SF-268 CNS) of over 100 µM. The TGI (OVCAR-3 ovarian) was over 100 µM, the TGI (DLD-1 colon) was over 100 µM and the TGI (SK-OV-3 ovarian) was over 100 µM. The TGI (TK-10 renal) was over 100 µM, the TGI (SK-MEL-2 melanoma) was over 100 µM and the TGI (MALME-3M melanoma) was over 100 µM. It also gave a TGI (MOLT-4 leukemia) of over 100 µM, a TGI (NCI-H23 lung) of over 100 µM and a TGI (NCI-H522 lung) of over 100 µM. It also gave a TGI (SNB-75 CNS) of over 100 µM, a TGI (A498 renal) of over 100 µM and a TGI (OVCAR-5 ovarian) of over 100 µM.

COC(=O)C1=C(c2cc(OC)c(OC)c(OC)c2)OC(c2cc(OC)c(OC)c(OC)c2)C1COC(C)=O (stereo unspecified) gave a TGI (NCI-H226 lung) of over 100 µM, a TGI (RXF 393 renal) of over 100 µM and a TGI (DMS 114 small cell lung) of over 100 µM. For the same compound, the TGI (HCC-2998 colon) was over 100 µM, the TGI (SK-MEL-28 melanoma) was over 100 µM and the TGI (A549 NSCLC) was over 100 µM. The TGI (HT29 colon) was over 100 µM, the TGI (U251 CNS) was over 100 µM and the TGI (RXF-631 renal) was 45.1 µM. The TGI (NCI-H460 lung) was over 100 µM, the TGI (SN12C renal) was over 100 µM and the TGI (CAKI-1 renal) was over 100 µM. For the same compound, the TGI (LOX IMVI melanoma) was 57 µM, the TGI (RPMI-8226 leukemia) was over 100 µM and the TGI (OVCAR-4 ovarian) was over 100 µM. The TGI (M14 melanoma) was over 100 µM, the TGI (SF-539 CNS) was over 100 µM and the TGI (UACC-62 melanoma) was over 100 µM. For the same compound, the TGI (IGROV1 ovarian) was over 100 µM, the TGI (EKVX NSCLC) was over 100 µM and the TGI (UO-31 renal) was over 100 µM. The TGI (KM12 colon) was over 100 µM, the TGI (CCRF-CEM leukemia) was over 100 µM and the TGI (KM20L2 colon) was over 100 µM. It also gave a TGI (HOP-92 NSCLC) of over 100 µM, a TGI (SW-620 colon) of over 100 µM and a TGI (LXFL 529 NSCLC) of over 100 µM. The TGI (HCT-15 colon) was over 100 µM, the TGI (K-562 leukemia) was over 100 µM and the TGI (HOP-62 NSCLC) was over 100 µM. For the same compound, the TGI (M19-MEL melanoma) was over 100 µM, the TGI (SNB-19 CNS) was over 100 µM and the TGI (OVCAR-8 ovarian) was over 100 µM. It also gave a TGI (ACHN renal) of over 100 µM, a TGI (UACC-257 melanoma) of over 100 µM and a TGI (SNB-78 CNS) of over 100 µM. It also gave a TGI (786-0 renal) of over 100 µM, a TGI (XF 498 CNS) of over 100 µM and a TGI (SK-MEL-5 melanoma) of 97.8 µM. For the same compound, the TGI (DMS 273 small cell lung) was over 100 µM, the TGI (COLO 205 colon) was 33.4 µM and the TGI (HCT-116 colon) was over 100 µM. The TGI (SF-268 CNS) was over 100 µM, the TGI (OVCAR-3 ovarian) was over 100 µM and the TGI (DLD-1 colon) was over 100 µM. It also gave a TGI (SF-295 CNS) of over 100 µM, a TGI (SK-OV-3 ovarian) of over 100 µM and a TGI (HL-60(TB) leukemia) of 30.5 µM. It also gave a TGI (TK-10 renal) of over 100 µM, a TGI (SR leukemia) of 52.2 µM and a TGI (MALME-3M melanoma) of over 100 µM. It also gave a TGI (MOLT-4 leukemia) of 58.7 µM, a TGI (NCI-H23 lung) of over 100 µM and a TGI (NCI-H522 lung) of over 100 µM. For the same compound, the TGI (SNB-75 CNS) was over 100 µM, the TGI (A498 renal) was over 100 µM and the TGI (OVCAR-5 ovarian) was over 100 µM.
